# Tested on: 565232-114-T-J1-PDC complex spheroid viability
# Experiment: Anticancer human tumor 565232-114-T-J1-PDC patient-derived bladder carcinoma cell line growth inhibition [CLK]
# Conditions: for viability, T/C: stronger effect = lower value
# In short: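 Multi-cell-type spheroids combined patient-derived tumor cells with HUVEC endothelial cells and human mesenchymal stem cells. Paired agents were dosed in half-log steps down from about clinical Cmax, or from 10 microM where Cmax was unknown.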
# [1] = curve of first compound, second compound 0.0316 µM
# [2] = curve of first compound, second compound 0.1 µM
# [3] = curve of first compound, second compound 0.316 µM
# [4] = curve of first compound, second compound 1 µM
# [5] = curve of first compound, second compound 3.16 µM
# [6] = curve of first compound, second compound 10 µM
# [7] = second compound 0.0316 µM, first compound 0.0316 µM
# [8] = second compound 0.0316 µM, first compound 0.1 µM
# [9] = second compound 0.0316 µM, first compound 0.316 µM
# [10] = second compound 0.0316 µM, first compound 1 µM
# [11] = second compound 0.0316 µM, first compound 3.16 µM
# [12] = second compound 0.0316 µM, first compound 10 µM
# [13] = second compound 0.1 µM, first compound 0.0316 µM
# [14] = second compound 0.1 µM, first compound 0.1 µM
# [15] = second compound 0.1 µM, first compound 0.316 µM
# [16] = second compound 0.1 µM, first compound 1 µM
# [17] = second compound 0.1 µM, first compound 3.16 µM
# [18] = second compound 0.1 µM, first compound 10 µM
# [19] = second compound 0.316 µM, first compound 0.0316 µM
# [20] = second compound 0.316 µM, first compound 0.1 µM
# [21] = second compound 0.316 µM, first compound 0.316 µM
# [22] = second compound 0.316 µM, first compound 1 µM
# [23] = second compound 0.316 µM, first compound 3.16 µM
# [24] = second compound 0.316 µM, first compound 10 µM
# [25] = second compound 1 µM, first compound 0.0316 µM
# [26] = second compound 1 µM, first compound 0.1 µM
# [27] = second compound 1 µM, first compound 0.316 µM
# [28] = second compound 1 µM, first compound 1 µM
# [29] = second compound 1 µM, first compound 3.16 µM
# [30] = second compound 1 µM, first compound 10 µM
# [31] = second compound 3.16 µM, first compound 0.0316 µM
# [32] = second compound 3.16 µM, first compound 0.1 µM
# [33] = second compound 3.16 µM, first compound 0.316 µM
# [34] = second compound 3.16 µM, first compound 1 µM
# [35] = second compound 3.16 µM, first compound 3.16 µM
# [36] = second compound 3.16 µM, first compound 10 µM
# [37] = second compound 10 µM, first compound 0.0316 µM
# [38] = second compound 10 µM, first compound 0.1 µM
# [39] = second compound 10 µM, first compound 0.316 µM
# [40] = second compound 10 µM, first compound 1 µM
# [41] = second compound 10 µM, first compound 3.16 µM
# [42] = second compound 10 µM, first compound 10 µM
# 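Note: spheroids exposed to compounds for 7 days before readout.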
# 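Throughout, for viability, T/C: 100% = DMSO vehicle wells with luminescence normalized to vehicle control.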
smiles,measurement,setting,value
C#Cc1c(F)ccc2cc(O)cc(-c3ncc4c(N5CC6CCC(C5)N6)nc(OCC56CCCN5CC(F)C6)nc4c3F)c12 (stereo not drawn) + CN1CCN(c2cc(C(=O)Nc3cc4cc(-c5cnn(C)c5)ccc4cn3)ccn2)CC1,IC50,[1],> 10000 nM
same,IC50,[2],> 10000 nM
same,IC50,[3],< 31.6 nM
same,IC50,[4],< 31.6 nM
same,IC50,[5],< 31.6 nM
same,IC50,[6],< 31.6 nM
same,"viability, T/C",[7],104%
same,"viability, T/C",[8],75.3%
same,"viability, T/C",[9],106%
same,"viability, T/C",[10],113%
same,"viability, T/C",[11],93.2%
same,"viability, T/C",[12],101%
same,"viability, T/C",[13],96.8%
same,"viability, T/C",[14],76.8%
same,"viability, T/C",[15],102%
same,"viability, T/C",[16],86%
same,"viability, T/C",[17],101%
same,"viability, T/C",[18],107%
same,"viability, T/C",[19],25%
same,"viability, T/C",[20],29.1%
same,"viability, T/C",[21],26.9%
same,"viability, T/C",[22],28.1%
same,"viability, T/C",[23],21.8%
same,"viability, T/C",[24],21.1%
same,"viability, T/C",[25],0.26%
same,"viability, T/C",[26],0.25%
same,"viability, T/C",[27],0.72%
same,"viability, T/C",[28],0.3%
same,"viability, T/C",[29],1.23%
same,"viability, T/C",[30],0.75%
same,"viability, T/C",[31],0.23%
same,"viability, T/C",[32],3.14%
same,"viability, T/C",[33],0.23%
same,"viability, T/C",[34],0.18%
same,"viability, T/C",[35],2.07%
same,"viability, T/C",[36],0.17%
same,"viability, T/C",[37],0.21%
same,"viability, T/C",[38],1.2%
same,"viability, T/C",[39],2.26%
same,"viability, T/C",[40],0.7%
same,"viability, T/C",[41],3.78%
same,"viability, T/C",[42],0.83%
COc1ccc([C@@H](O)c2cc(-c3ncnc4cc(N5CCOCC5)ccc34)c(F)cc2Cl)nn1 + CN1CCN(c2cc(C(=O)Nc3cc4cc(-c5cnn(C)c5)ccc4cn3)ccn2)CC1,IC50,[1],> 10000 nM
same,IC50,[2],> 10000 nM
same,IC50,[3],< 31.6 nM
same,IC50,[4],< 31.6 nM
same,IC50,[5],< 31.6 nM
same,IC50,[6],< 31.6 nM
same,"viability, T/C",[7],87.3%
same,"viability, T/C",[8],95.6%
same,"viability, T/C",[9],88.1%
same,"viability, T/C",[10],85.4%
same,"viability, T/C",[11],96.9%
same,"viability, T/C",[12],103%
same,"viability, T/C",[13],88.1%
same,"viability, T/C",[14],91.6%
same,"viability, T/C",[15],86.3%
same,"viability, T/C",[16],113%
same,"viability, T/C",[17],105%
same,"viability, T/C",[18],97.9%
same,"viability, T/C",[19],12.2%
same,"viability, T/C",[20],18.2%
same,"viability, T/C",[21],17.1%
same,"viability, T/C",[22],11.9%
same,"viability, T/C",[23],16.2%
same,"viability, T/C",[24],13.2%
same,"viability, T/C",[25],0.83%
same,"viability, T/C",[26],0.2%
same,"viability, T/C",[27],1.54%
same,"viability, T/C",[28],0.18%
same,"viability, T/C",[29],0.2%
same,"viability, T/C",[30],1.34%
same,"viability, T/C",[31],0.14%
same,"viability, T/C",[32],0.2%
same,"viability, T/C",[33],0.18%
same,"viability, T/C",[34],0.18%
same,"viability, T/C",[35],1.47%
same,"viability, T/C",[36],1.21%
same,"viability, T/C",[37],0.1%
same,"viability, T/C",[38],0.16%
same,"viability, T/C",[39],0.24%
same,"viability, T/C",[40],0.19%
same,"viability, T/C",[41],0.2%
same,"viability, T/C",[42],1.44%
COC1C=CCC(C)C(C)S(=O)(=O)NC(=O)c2ccc3c(c2)N(CC2CCC21)CC1(CCCc2cc(Cl)ccc21)CO3 (stereo not drawn),"viability, T/C",compound 0.0316 µM,93.3%
same,"viability, T/C",compound 0.1 µM,92.9%
same,"viability, T/C",compound 0.316 µM,79.9%
same,"viability, T/C",compound 1 µM,21%
same,"viability, T/C",compound 3.16 µM,6.86%
same,"viability, T/C",compound 10 µM,3.28%
same,IC50,curve of compound,568 nM
CC1(C)CCC(CN2CCN(c3ccc(C(=O)NS(=O)(=O)c4ccc(NCC5CCOCC5)c([N+](=O)[O-])c4)c(Oc4cnc5[nH]ccc5c4)c3)CC2)=C(c2ccc(Cl)cc2)C1 + CNC(=O)c1ccc(Nc2nc(OC3CCCC3)c3c(-c4ccc5nc(C)oc5c4)c[nH]c3n2)c(OC)c1,IC50,[1],8790 nM
same,IC50,[2],2340 nM
same,IC50,[3],< 31.6 nM
same,IC50,[4],< 31.6 nM
same,IC50,[5],< 31.6 nM
same,IC50,[6],< 31.6 nM
same,"viability, T/C",[7],82.7%
same,"viability, T/C",[8],93.9%
same,"viability, T/C",[9],95.7%
same,"viability, T/C",[10],95.2%
same,"viability, T/C",[11],92.7%
same,"viability, T/C",[12],44.7%
same,"viability, T/C",[13],60.2%
same,"viability, T/C",[14],55.1%
same,"viability, T/C",[15],52.6%
same,"viability, T/C",[16],53.6%
same,"viability, T/C",[17],49.4%
same,"viability, T/C",[18],30.5%
same,"viability, T/C",[19],37.3%
same,"viability, T/C",[20],38.1%
same,"viability, T/C",[21],39.3%
same,"viability, T/C",[22],33.5%
same,"viability, T/C",[23],32.7%
same,"viability, T/C",[24],23.7%
same,"viability, T/C",[25],21.2%
same,"viability, T/C",[26],23.3%
same,"viability, T/C",[27],25.4%
same,"viability, T/C",[28],26.6%
same,"viability, T/C",[29],28.7%
same,"viability, T/C",[30],20.6%
same,"viability, T/C",[31],22%
same,"viability, T/C",[32],20.8%
same,"viability, T/C",[33],23.6%
same,"viability, T/C",[34],20.8%
same,"viability, T/C",[35],20.8%
same,"viability, T/C",[36],17.1%
same,"viability, T/C",[37],21.5%
same,"viability, T/C",[38],19.9%
same,"viability, T/C",[39],18.5%
same,"viability, T/C",[40],21.1%
same,"viability, T/C",[41],20.1%
same,"viability, T/C",[42],16.5%

# Source: PubChem BioAssay AID2060612 (Molecular Pharmacology Branch, DTP, NCI, 2025)
